experiment: Human HepG2 cell viability assay in 384 well format; assay type: toxicity, cell-based; parameters: dose 125 nL, time 70.5 hour; concentration not given beside the values; conditions: HepG2 cells, read-out: Inhibition

SMILES | cytotoxicity at 70.5 h [%]
COCC(=O)N[C@H]1C[C@@H](Cc2cc(CN3CCCCC3)on2)C1(C)C | 24.1
CN1CCOC[C@H]1c1nc(-c2cccc(F)c2)c[nH]1 | 2.61
CC(C)(C)c1coc([C@@H]2COCCN2Cc2ccccn2)n1 | 2.91
CC(C)(C)c1coc([C@@H]2COCCN2Cc2ncc[nH]2)n1 | -0.512
CN1CCC(N2CCOC[C@H]2c2nc(-c3ccncc3)c[nH]2)CC1 | 3.14
CC(=O)N1CC[C@H](c2nc3cc(F)ccc3o2)C1 | 2.32
CCN(CC)C[C@H]1CN2CC[C@H]1C[C@@H]2CNC(=O)Nc1ccsc1 | -8.02
Cn1cncc1-c1nnc([C@H]2CCN(Cc3ccc(CO)o3)C2)o1 | 5.94
Cn1cncc1-c1nnc([C@H]2CCN(Cc3ncc[nH]3)C2)o1 | 2.99
COc1ccc(-c2nnc([C@H]3CCN(CC(C)(C)C)C3)o2)cc1 | -1.13
c1cc(-c2nnc([C@H]3CCN(C4CCCCC4)C3)o2)ccn1 | -0.595
COc1cccc(CN2CC[C@H](c3nnc(C)o3)C2)c1 | 2.22
c1cc(-c2nnc([C@H]3CCN(C4CCOCC4)C3)o2)ccn1 | 2.55
c1ccc2c(Cc3nnc([C@H]4CCN(C5CCC5)C4)o3)c[nH]c2c1 | -6.08
Cc1ccc(CN2CC[C@H](c3nnc(-c4ccco4)o3)C2)cc1 | 6.16
CCCc1nnc([C@H]2CCN(Cc3ncc[nH]3)C2)o1 | -1.6
O=C(C1CC1)N1C[C@@H](F)[C@@H](OCc2nc3ccccc3[nH]2)C1 | 4.35
COc1ccc(CN2C[C@@H](F)[C@@H](OCc3nc4cnccc4[nH]3)C2)cn1 | -4.62
N#Cc1cccc(CN2C[C@@H](F)[C@@H](OCc3nc4ccccc4[nH]3)C2)c1 | -2.32
Cc1cccc(CN2C[C@@H](F)[C@@H](OCc3nc4ccccc4[nH]3)C2)n1 | -1.57
COc1ccc(CN2C[C@@H](F)[C@@H](OCc3nc4ccccc4[nH]3)C2)cn1 | -2.98
O=C1CO[C@H](c2ccc(NS(=O)(=O)Cc3ccccc3)cc2)[C@@H](CO)N1 | 12

SMILES | cytotoxicity at 70.5 h [%]
CC(=O)Nc1ccc2c(c1)nc1n2[C@@H](CNCc2ccccc2)COC1 | -11.7
COc1ccc(CNC[C@H]2COCc3nc4cc(F)ccc4n32)cc1 | -14.9
Cc1cc2nc(CO[C@H]3CN(C(=O)C4CC4)C[C@H]3F)[nH]c2cc1C | 27.1
Cc1cc2nc(CO[C@H]3CN(C4CCCCC4)C[C@H]3F)[nH]c2cc1C | 3.34
Cc1cc2nc(CO[C@H]3CN(CC4CC4)C[C@H]3F)[nH]c2cc1C | -2.67
COC(=O)c1cccc2nc([C@H]3CCN(CC(C)C)C3)oc12 | -4.07
Fc1ccc2[nH]c([C@H]3CCN(C4CCOCC4)C3)nc2c1 | 4.63
CCS(=O)(=O)c1ccc2oc([C@H]3CCN(CC4CCCCC4)C3)nc2c1 | 13.1
Fc1ccc(OCc2nnc([C@H]3CCN(Cc4ccncc4)C3)o2)cc1 | -6.85
CN1CC[C@H](c2nnc(Cc3c[nH]c4ccccc34)o2)C1 | -1.52
COC(=O)[C@@H]1Cc2[nH]cnc2CN1Cc1cc2ccccc2o1 | -2.5
CN(Cc1ccccc1)C(=O)[C@@H]1Cc2[nH]cnc2CN1C | 9.41
CN(C[C@H]1CN2CC[C@H]1C[C@@H]2CNC(=O)c1ccco1)c1ccccc1 | -0.576
O[C@@H]1C[C@@H](c2nc(-c3ccccc3)no2)N(CC2CCCCC2)C1 | -12.5
CC(C)CN1C(=O)COC[C@@H]1[C@H](O)c1ccc(NC(=O)C2CC2)cc1 | 5.4
Cc1cccc(-c2noc([C@@H]3C[C@@H](O)CN3C)n2)c1 | 3.3
O[C@@H]1C[C@@H](c2nc(Cc3ccccc3)no2)N(Cc2ccc(F)cc2)C1 | -19.1
Cc1cccc(-c2noc([C@@H]3C[C@@H](O)CN3CC3CCCCC3)n2)c1 | -1.98
Cc1ccc2oc([C@H]3CCN(Cc4ccccc4)C3)nc2c1 | 5.17
COc1ccc(CN2CCC[C@H]2c2nc(-c3cncnc3N)no2)cc1 | 12.8
COCc1cc(CC2(NCc3ccccc3Cl)COC2)no1 | -3.62
CC(C)CNC1(Cc2cc(-c3ccccc3)on2)COC1 | -6.11

SMILES | cytotoxicity at 70.5 h [%]
O=C(NC[C@H]1OC[C@@H](N(CC2CC2)CC2CC2)[C@@H]1O)Nc1ccccc1 | -8.13
Cc1nc(C)c(CN2CCOC[C@H](Oc3cnccn3)C2)s1 | -7.51
CN1C[C@H]2CN(Cc3cccc(OC(F)(F)F)c3)CCN2C1=O | 8.83
Cc1ccc(CNC2(Cc3cc(C(C)(C)O)on3)COC2)o1 | -5.2
COC(=O)[C@H]1CN(C(=O)NC(C)C)CCN1C(=O)CSC | -5.64
c1ccc(-c2cc(CC3(NCc4ncc[nH]4)COC3)no2)cc1 | -4.27
CCCN(CCC)C1(Cc2cc(-c3cccc(O)c3)on2)COC1 | -2.95
CCCS(=O)(=O)N1Cc2c(ncn2Cc2ccccc2)C[C@H]1C(=O)OC | -5.74
O[C@@H]1C[C@@H](c2nc(Cc3ccccc3)no2)N(CC2CC2)C1 | 2.65
CN1C[C@@H](N)C[C@H]1c1nc(-c2ccc3c(c2)OCO3)no1 | -1.52
O[C@H]1CC[C@@H](Cc2cc(-c3ccccn3)on2)O[C@@H]1CNCC1CC1 | -7.3
O=C(Nc1ccccc1)[C@H]1O[C@H](CCN2CCNCC2)CC[C@@H]1O | 0.346
CN1Cc2nc[nH]c2C[C@H]1C(=O)NC1CCCCC1 | -3.45
NC(=O)CN1C(=O)CO[C@H]2CN(Cc3ccc(F)c(F)c3)C[C@H]21 | -3.9
Cc1cccc(CS(=O)(=O)NCc2nn(C)c3c2COCC3)c1 | -7.96
Cn1nc(CNC(=O)C2CCC2)cc1C1CC1 | -4.15
Cn1nc(CNC(=O)C2CCCCC2)cc1C1CC1 | 33
CCSc1ccccc1C(=O)N1CCC(S(=O)(=O)c2nncn2C)CC1 | -5.86
Cn1cnnc1S(=O)(=O)C1CCN(S(=O)(=O)c2ccccc2F)CC1 | -9.91
CNC(=O)CS(=O)(=O)C1CCN(S(=O)(=O)c2cccnc2)CC1 | -3.91
O=C(Cc1ccc(Br)cc1)N1CC(S(=O)(=O)C2CCCCC2)C1 | -4.51
O=C(c1cccnc1)N1CC(S(=O)(=O)c2ccc(Cl)cc2)C1 | -10.4

SMILES | cytotoxicity at 70.5 h [%]
O=C(c1ccccn1)N1CC(S(=O)(=O)c2ccc(Cl)cc2)C1 | 1.72
O=C(Nc1ccc2c(c1)OCO2)Nc1cnn(C2CCOCC2)c1 | -0.609
Cc1ccc(S(=O)(=O)Nc2cnn(C3CCOCC3)c2)cc1C | 2.28
CC(=O)c1ccc(S(=O)(=O)Nc2cnn(C3CCOCC3)c2)cc1 | 6.82
COC(CNC(=O)c1cn(C)nn1)c1ccc(C)s1 (configuration not stated) | -6.13
COc1nn(C)cc1C(=O)NCC(OC)c1ccccc1C (configuration not stated) | -3.02
COC(CNC(=O)c1cn(C)nn1)c1ccccc1C (configuration not stated) | -3.6
CCC(CNC(C)=O)(OC)c1ccccc1 (configuration not stated) | -6.06
O=C(CC1CCCC1)N1CCN(c2ccc(-n3cncn3)nn2)CC1 | -7.71
O=C(O)c1ncccc1N1CCCCC1 | -14.8
CCN1C(=O)C[C@@H]2[C@@H]1CCN2S(=O)(=O)c1cccc(C)c1 | 12.1
CC(C)C(=O)N1CCC(C2C(=O)Nc3ccccc32)CC1 (configuration not stated) | -16.1
COCCN1C[C@H]2CCN(C(=O)Nc3ccccc3C)CC[C@H]2S1(=O)=O | -11.5
CCN1CCC2(CN(C(C)=O)CC23CCN(C(=O)N(C)C)CC3)C1=O (configuration not stated) | -9.48
Cc1cc(C(=O)N[C@H]2CC[C@@]3(CCC(=O)N3)CC2)no1 | -6.09
COc1ccc(CN2C[C@@H]3CN(CCO)C[C@@H]3C2=O)cc1 | -11.6
COC1COC2(CCN(Cc3ccco3)CC2)C1 (configuration not stated) | -8.76
c1cnc(N2C[C@H]3CCC[C@@H](CN4CCCC4)[C@H]3C2)nc1 | 22.9
CCn1c2c(ccc1=O)CC(N)CC2 (configuration not stated) | 15.2
CCN1CCNC(=O)C12CCN(S(=O)(=O)c1ccc(F)cc1)CC2 | 0.587
CCN1CCNC(=O)C12CCN(S(=O)(=O)c1ccccc1)CC2 | -6.26
O=C(NCC1CC1)C1CCC2(CCNCC2)C1 (configuration not stated) | -2.15

SMILES | cytotoxicity at 70.5 h [%]
CCN1CCNC(=O)C12CCN(S(=O)(=O)c1ccc(OC)cc1)CC2 | -7.91
O=C(C1CCC1)N1CCC2(CCNCC2)C1 | 13.3
CC(C)COC(=O)N1CCC2(CCNC2)C1 (configuration not stated) | -10.5
CO[C@H]1CCN(C2CCOCC2)C[C@@H]1Cc1ccccc1 | -7.39
CO[C@@H]1CCN(C2CCOCC2)C[C@@H]1Cc1ccccc1 | -11.8
CN(C)CCN1C(=O)C[C@@H]2[C@@H]1CCN2S(=O)(=O)c1ccccc1 | -12.7
O=C1[C@@H]2CN(C3CCOCC3)C[C@H]2CCN1CC1CC1 | -10.2
CN(C)C(=O)CN1CC[C@H]2CN(S(C)(=O)=O)C[C@@H]2C1=O | -3.84
CCN1CCC2(CN(C(=O)N(C)C)CC23CCNCC3)C1=O (configuration not stated) | -8.8
O=C(C1CCC2(CCN(CC3CCOCC3)CC2)O1)N1CCCC1 (configuration not stated) | 4.83
CN(C)C(=O)N1CC2(CCN(CC3CC3)CC2)c2cc(F)ccc21 | 19.9
O=C1CC[C@]2(CC[C@@H](NCc3ccc4c(c3)OCO4)CC2)N1 | 19.9
O=C(C1CC1)N1CC2(CCN(CC3CC3)CC2)c2cc(F)ccc21 | 25.9
O=C1CC[C@]2(CC[C@@H](NCc3ccoc3)CC2)N1 | -2.86
O=C(C1CC1)N1CC2(CCNCC2)c2cc(F)ccc21 | -11.1
CCN(C)C1COC2(CCN(C(=O)c3cccc(Cl)c3)CC2)C1 (configuration not stated) | -6.18
O=C(C[C@H]1[C@H]2CN(Cc3ccsc3)C[C@@H]12)N1CCCC1 | -1.9
CCN1CCN(C)C2(CCN(Cc3ccc(C)o3)CC2)C1=O | -7.08
c1cc(CN2CCC3(CCOCC3COCC3CC3)CC2)ccn1 (configuration not stated) | 0.537

Reference: ChEMBL document CHEMBL3507680, “University of Dundee, Gates Library screen for HepG2 cell viability”
